Data as given in patent publication US20080319055A1, “Cooling Compounds” (GIVAUDAN SA, priority 2005, published 2008).

These compounds were tested on trained panel of 4 to 8 people (assay: Cooling intensity by trained panel, isointensity method versus menthol). Conditions: aqueous solutions tasted, compared to aqueous solution of reference menthol at 2 ppm.
Format: in vivo
Description: The cooling intensity of the compounds was determined by a trained panel of 4 to 8 people according to the isointensity method as described below.
Aqueous solutions of various concentrations of a chemical compound were prepared and tasted. The cooling intensity of each solution was compared to that of an aqueous solution of the reference compound at 2 ppm, namely menthol.

First: COc1ccc(C(=O)NC(C)(C(C)C)C(C)C)cc1 [Ex. 4, N-1-methyl-1-isopropylisobutyl anisamide]
Second: COC(=O)c1ccc(C(=O)NC(C)(C(C)C)C(C)C)cc1 [Ex. 5C, N-(1-methyl-1-isopropyl-isobutyl) O-methylterephthalamate]
The rel. cooling intensity of the first is lower: 1.1 for the first, 1.7 for the second.

Going from `COC(=O)c1ccc(C(=O)NC2CC(C)CCC2C(C)C)cc1` (stereo not shown) [Ex. 5D, N-(3-p-menthyl) O-methylterephthalamate] to `CC1(C)C2CCC1(C)C(NC(=O)c1ccccc1)C2` (stereo not shown) [Ex. 5M, N-bornyl benzamide], the rel. cooling intensity falls from 2.5 to 0.6.

First: CCC(CC)(CC)NC(=O)c1ccc(-c2ccccc2)cc1 [Ex. 5E, N-(1,1-diethylpropyl)biphenyl-4-carboxamide]
Second: CC(C)C(C)(NC(=O)c1ccc(-c2ccccc2)cc1)C(C)C [Ex. 5F, N-(1-methyl-1-isopropyl-isobutyl) biphenyl-4-carboxamide]
The rel. cooling intensity of the first is lower: 1.2 for the first, 1.5 for the second.

`CC(C)C(NC(=O)c1ccc2c(c1)OCO2)C(C)C` [Ex. 5H, N-(1-isopropyl-isobutyl)benzo[1,3]dioxole-5-carboxamide] and `CC(C)C(C)(NC(=O)c1ccc2c(c1)OCO2)C(C)C` [Ex. 5K, N-(1-methyl-1-isopropyl-isobutyl)benzo[1,3]dioxole-5-carboxamide] are the same in rel. cooling intensity: 0.9 for the first, 0.9 for the second.

`CCC(CC)(CC)NC(=O)c1ccc2c(c1)OCO2` [Ex. 5L, N-(1,1-diethylpropyl)benzo[1,3]dioxole-5-carboxamide] was tested, and the rel. cooling intensity was 0.3.

The compounds below were run on mouth (assay: Application in mouthwash, cooling sensation in the mouth). Conditions: 50 mL of 1% solution in alcohol per 1 liter mouthwash (also contains peppermint oil); 30 mL swished, gargled and spit out.
Format: in vivo
Description: All the ingredients were mixed. 30 mL of obtained solution was put in the mouth, swished around, gargled and spit out.

In the case of `COc1ccc(C(=O)NC(C)(C(C)C)C(C)C)cc1` [Ex. 4, N-1-methyl-1-isopropylisobutyl anisamide], the “cooling sensation in mouthwash” value is reported as “pleasant cooling sensation was felt in every area of the mouth”.
